Earlier results, collected in US20020146399A1, “Sorbic acid product comprising probiotics as addition to feedstuffs in agricultural livestock rearing” (priority 2001, published 2002).

Tests used:
[1] = extensive data and decades of use in human food and animal feeds

solubility in cold water: dissolves only slightly
SMILES: C/C=C/C=C/C(=O)O [Sorbic acid, trans,trans-2,4-hexadienoic acid]
toxicity [1]: virtually nontoxic
